Values joined by “and” are separate entries in the source; they are usually repeats but may differ in a detail not shown here. Identical values can stand only once. Numbers after ± are expanded uncertainties.
Columns and labels:
[1] = 100 kPa, Liquid; for speed of sound: Frequency=3 MHz, Single path-length method; for mass density: Vibrating tube method; for viscosity: Falling or rolling sphere viscometry
[2] = refractive index (Na D-line) (dimensionless); details: 100 kPa, Liquid, Standard Abbe refractometry
[3] = xn = mol fraction of the nth substance listed; details: 100 kPa, Liquid, x1 = 1; for viscosity: Falling or rolling sphere viscometry; for speed of sound: Frequency=3 MHz, Single path-length method; for mass density: Vibrating tube method
[4] = refractive index (Na D-line) (dimensionless); xn = mol fraction of the nth substance listed; details: 100 kPa, Liquid, Standard Abbe refractometry, x1 = 1

Row | SMILES | speed of sound ([1]; 293.15 K) | mass density ([1]; 293.15 K) | viscosity ([1]; 298.15 K) | speed of sound ([1]; 298.15 K) | mass density ([1]; 298.15 K) | viscosity ([1]; 308.15 K) | speed of sound ([1]; 308.15 K) | mass density ([1]; 308.15 K) | viscosity ([1]; 318.15 K) | speed of sound ([1]; 318.15 K) | mass density ([1]; 318.15 K) | speed of sound ([1]; 323.15 K) | mass density ([1]; 323.15 K) | refractive index ([2]; 293.15 K) | refractive index ([2]; 298.15 K) | refractive index ([2]; 308.15 K) | refractive index ([2]; 318.15 K) | refractive index ([2]; 323.15 K) | viscosity ([1]; 293.15 K) | viscosity ([1]; 303.15 K) | also measured
1 | CCC(C)c1ccccc1 (centres undefined) [(1-methylpropyl)benzene] | 1333.8 ± 1 m/s | 861.95 ± 0.42 kg/m3 | 0.912 ± 0.021 mPa·s | 1313.8 ± 1 m/s | 857.89 ± 0.42 kg/m3 | 0.796 ± 0.021 mPa·s | 1274.5 ± 1 m/s | 849.78 ± 0.42 kg/m3 | 0.707 ± 0.021 mPa·s | 1235.7 ± 1 m/s | 841.64 ± 0.42 kg/m3 | 1216.1 ± 1 m/s | 837.48 ± 0.42 kg/m3 | 1.49 ± 0.0004 | 1.4876 ± 0.0004 | 1.4827 ± 0.0004 | 1.4778 ± 0.0004 | 1.4753 ± 0.0004 |  |  | 
2 | CCCCCCCCCCCCCCCC [hexadecane] | 1357.5 ± 1 m/s | 773.33 ± 0.42 kg/m3 | 2.968 ± 0.064 mPa·s and 3.035 ± 0.065 mPa·s | 1338.6 ± 1 m/s and 1338.5 ± 1 m/s | 769.86 ± 0.42 kg/m3 and 769.81 ± 0.42 kg/m3 | 2.389 ± 0.063 mPa·s and 2.439 ± 0.063 mPa·s | 1301.3 ± 1 m/s and 1301.2 ± 1 m/s | 762.94 ± 0.42 kg/m3 and 762.89 ± 0.42 kg/m3 | 1.971 ± 0.062 mPa·s and 2.008 ± 0.062 mPa·s | 1264.6 ± 1 m/s and 1264.7 ± 1 m/s | 755.99 ± 0.42 kg/m3 and 755.98 ± 0.42 kg/m3 | 1246.6 ± 1 m/s | 752.58 ± 0.42 kg/m3 | 1.4345 ± 0.0004 | 1.4324 ± 0.0004 | 1.4283 ± 0.0004 | 1.4241 ± 0.0004 | 1.422 ± 0.0004 | 3.341 ± 0.065 mPa·s | 2.656 ± 0.064 mPa·s | speed of sound ([1]; 303.15 K): 1319.9 ± 1 m/s; mass density ([1]; 303.15 K): 766.4 ± 0.42 kg/m3; viscosity ([1]; 313.15 K): 2.164 ± 0.062 mPa·s; speed of sound ([1]; 313.15 K): 1282.9 ± 1 m/s; mass density ([1]; 313.15 K): 759.48 ± 0.42 kg/m3; viscosity ([1]; 323.15 K): 1.8 ± 0.062 mPa·s; refractive index ([2]; 303.15 K): 1.4304 ± 0.0004; refractive index ([2]; 313.15 K): 1.4261 ± 0.0004
3 | CCCCCCCCCCCCCCCC [hexadecane] + CCC(C)c1ccccc1 |  |  |  |  |  |  |  |  |  |  |  |  |  |  |  |  |  |  |  |  | viscosity ([3]; 298.15 K): 3.035 ± 0.064 mPa·s; speed of sound ([3]; 298.15 K): 1338.5 ± 1 m/s; mass density ([3]; 298.15 K): 769.81 ± 0.42 kg/m3; viscosity ([3]; 308.15 K): 2.439 ± 0.063 mPa·s; speed of sound ([3]; 308.15 K): 1301.2 ± 1 m/s; mass density ([3]; 308.15 K): 762.89 ± 0.42 kg/m3; viscosity ([3]; 318.15 K): 2.008 ± 0.062 mPa·s; speed of sound ([3]; 318.15 K): 1264.7 ± 1 m/s; mass density ([3]; 318.15 K): 755.98 ± 0.42 kg/m3; refractive index ([4]; 298.15 K): 1.4324 ± 0.0004; refractive index ([4]; 308.15 K): 1.4283 ± 0.0004; refractive index ([4]; 318.15 K): 1.4241 ± 0.0004
4 | CCCCCCCCCCCCCCCC [hexadecane] + CCCc1ccccc1 |  |  |  |  |  |  |  |  |  |  |  |  |  |  |  |  |  |  |  |  | viscosity ([3]; 298.15 K): 2.968 ± 0.064 mPa·s; speed of sound ([3]; 298.15 K): 1338.6 ± 1 m/s; mass density ([3]; 298.15 K): 769.86 ± 0.42 kg/m3; viscosity ([3]; 308.15 K): 2.389 ± 0.063 mPa·s; speed of sound ([3]; 308.15 K): 1301.3 ± 1 m/s; mass density ([3]; 308.15 K): 762.94 ± 0.42 kg/m3; viscosity ([3]; 318.15 K): 1.971 ± 0.062 mPa·s; speed of sound ([3]; 318.15 K): 1264.6 ± 1 m/s; mass density ([3]; 318.15 K): 755.99 ± 0.42 kg/m3; refractive index ([4]; 298.15 K): 1.4324 ± 0.0004; refractive index ([4]; 308.15 K): 1.4283 ± 0.0004; refractive index ([4]; 318.15 K): 1.4241 ± 0.0004
5 | CCCc1ccccc1 [propylbenzene] | 1341.5 ± 0.6 m/s | 862.72 ± 0.22 kg/m3 | 0.792 ± 0.021 mPa·s | 1320.6 ± 0.6 m/s | 858.45 ± 0.22 kg/m3 | 0.699 ± 0.021 mPa·s | 1280.6 ± 0.6 m/s | 850.01 ± 0.22 kg/m3 | 0.626 ± 0.021 mPa·s | 1241 ± 0.6 m/s | 841.53 ± 0.22 kg/m3 | 1221.5 ± 0.6 m/s | 837.31 ± 0.22 kg/m3 | 1.4921 ± 0.0004 | 1.4896 ± 0.0004 | 1.4844 ± 0.0004 | 1.4792 ± 0.0004 | 1.4766 ± 0.0004 | 0.846 ± 0.021 mPa·s | 0.742 ± 0.021 mPa·s | viscosity ([1]; 288.15 K): 0.924 ± 0.021 mPa·s; speed of sound ([1]; 303.15 K): 1300.4 ± 0.6 m/s; mass density ([1]; 303.15 K): 854.28 ± 0.22 kg/m3; viscosity ([1]; 313.15 K): 0.655 ± 0.021 mPa·s; speed of sound ([1]; 313.15 K): 1260.9 ± 0.6 m/s; mass density ([1]; 313.15 K): 845.81 ± 0.22 kg/m3; viscosity ([1]; 323.15 K): 0.601 ± 0.02 mPa·s; refractive index ([2]; 303.15 K): 1.487 ± 0.0004; refractive index ([2]; 313.15 K): 1.4818 ± 0.0004
